Source: paper PMC8373216, “Development and Preclinical Evaluation of New Inhaled Lipoglycopeptides for the Treatment of Persistent Pulmonary Methicillin-Resistant Staphylococcus aureus Infections” (Antimicrobial Agents and Chemotherapy, 2021)
Values after ≈ are worked out from the molar mass of the structure shown. Like-named read-outs stand apart in the source and are kept apart here.

Legend:
[1] = test system: Streptococcus pneumoniae; test: Expanded panel broth microdilution MIC/MBC; type: cell-based; conditions: Streptococcus pneumoniae; S. pneumoniae PISP, 2 isolates; read-out: MIC (median)
[2] = test system: Cutibacterium acnes; test: Expanded panel broth microdilution MIC; type: cell-based
[3] = test system: S. marcescens; test: Expanded panel broth microdilution MIC; type: cell-based; conditions: Serratia marcescens, ATCC43862; S. marcescens ATCC 43862; read-out: MIC
[4] = test system: Streptococcus anginosus; test: Expanded panel broth microdilution MIC/MBC; type: cell-based; conditions: for MIC: Streptococcus anginosus, read-out: MIC
[5] = test system: Acinetobacter baumannii; test: Expanded panel broth microdilution MIC; type: cell-based; conditions: Acinetobacter baumannii; for MIC: read-out: MIC
[6] = test system: K. pneumoniae; test: Expanded panel broth microdilution MIC; type: cell-based
[7] = test system: Streptococcus dysgalactiae; test: Expanded panel broth microdilution MIC/MBC; type: cell-based; conditions: for MIC: Streptococcus dysgalactiae
[8] = test system: E. coli; test: Expanded panel broth microdilution MIC; type: cell-based; conditions: Escherichia coli, read-out: MIC
[9] = test system: Staphylococcus epidermidis; test: Expanded panel broth microdilution MIC/MBC; type: cell-based; conditions: for MIC: Staphylococcus epidermidis
[10] = test system: MSSA ATCC 29213; test: In-house broth microdilution MIC screening; type: cell-based; conditions: Staphylococcus aureus; broth microdilution; read-out: MIC Value, MSSA ATCC 29213
[11] = test system: MRSA ATCC BAA 1556 (USA300) biofilm; test: MRSA biofilm killing, MBEC assay system, TSB with 1% human plasma; conditions: MBEC
[12] = test system: Enterococcus faecalis; test: Expanded panel broth microdilution MIC/MBC; type: cell-based
[13] = test system: Streptococcus pyogenes; test: Expanded panel broth microdilution MIC/MBC; type: cell-based; conditions: for MIC: Streptococcus pyogenes
[14] = test system: Staphylococcus hominis; test: Expanded panel broth microdilution MIC; type: cell-based
[15] = test system: P. mirabilis; test: Expanded panel broth microdilution MIC; type: cell-based; conditions: Proteus mirabilis, ATCC43071; P. mirabilis ATCC 43071; read-out: MIC
[16] = test system: C. freundii; test: Expanded panel broth microdilution MIC; type: cell-based; conditions: Citrobacter freundii; C. freundii MMX 6602; read-out: MIC
[17] = test system: Burkholderia cepacia; test: Expanded panel broth microdilution MIC; type: cell-based
[18] = test system: Streptococcus mitis; test: Expanded panel broth microdilution MIC/MBC; type: cell-based; conditions: for MIC: Streptococcus mitis

CCCCCCCCCCNCCN[C@@]1(C)C[C@H](O[C@H]2[C@H](Oc3c4cc5cc3Oc3ccc(cc3Cl)[C@@H](O)[C@@H](NC(=O)[C@@H](CC(C)C)NC)C(=O)N[C@@H](CC(N)=O)C(=O)N[C@H]5C(=O)N[C@H]3C(=O)N[C@H](C(=O)N[C@H](C(=O)O)c5cc(O)cc(O)c5-c5cc3ccc5O)[C@H](O)c3ccc(c(Cl)c3)O4)O[C@H](CO)[C@@H](O)[C@@H]2O)O[C@@H](C)[C@H]1O [RV40, N-decylaminoethylvancomycin]
MIC [1]: 0.004 µg/mL (≈ 2.45 nM)
MIC ([2]; ATCC6919, P. acnes ATCC 6919, read-out: MIC): 0.008 µg/mL (≈ 4.9 nM)
MIC ([2]; ATCC11827, P. acnes ATCC 11827, read-out: MIC): 0.008 µg/mL (≈ 4.9 nM)
MIC ([2]; C. acnes, 2 isolates, read-out: MIC (median)): 0.008 µg/mL (≈ 4.9 nM)
MIC [3]: > 64 µg/mL
MIC:MBC ([4]; S. anginosus AGS): >8
MIC ([4]; ATCC33397, S. anginosus (AGS) ATCC 33397): 0.015 µg/mL (≈ 9.19 nM)
MIC ([4]; S. anginosus AGS, 1 isolate): 0.015 µg/mL (≈ 9.19 nM)
MIC range [5]: 32 to 64 µg/mL
MIC ([5]; A. baumannii MMX 3372, MDR): 64 µg/mL (≈ 39200 nM)
MIC ([5]; A. baumannii MMX 6974, colistinR): 32 µg/mL (≈ 19600 nM)
MIC ([5]; NCTC13304, A. baumannii NCTC 13304, OXA-27): > 64 µg/mL
MIC ([6]; K. pneumoniae MMX 4679, KPC-2): > 64 µg/mL
MIC ([6]; Klebsiella pneumoniae, K. pneumoniae MMX 2542, read-out: MIC): > 64 µg/mL
MIC:MBC ([7]; S. dysgalactiae, MBC on one organism): 1
MIC ([7]; S. dysgalactiae MMX 5121, read-out: MIC): 0.008 µg/mL (≈ 4.9 nM)
MIC ([7]; S. dysgalactiae MMX 5123, read-out: MIC): 0.12 µg/mL (≈ 73.5 nM)
MIC ([7]; S. dysgalactiae MMX 5124, read-out: MIC): 0.015 µg/mL (≈ 9.19 nM)
MIC ([7]; S. dysgalactiae, 3 isolates, read-out: MIC (median)): 0.015 µg/mL (≈ 9.19 nM)
MIC ([8]; ATCC25922, E. coli ATCC 25922, non-ESBL): > 64 µg/mL
MIC ([8]; E. coli MMX 5684, ESBL (TEM-10)): > 64 µg/mL
MIC:MBC ([9]; S. epidermidis MRSE, MBC on one organism): 1
MIC ([9]; ATCC49134, S. epidermidis ATCC 49134, MSSE, read-out: MIC): 0.015 µg/mL (≈ 9.19 nM)
MIC ([9]; MRSE, S. epidermidis MMX 762, MRSE, read-out: MIC): 0.008 µg/mL (≈ 4.9 nM)
MIC ([9]; MRSE, S. epidermidis MMX 5145, MRSE, read-out: MIC): 0.004 µg/mL (≈ 2.45 nM)
MIC ([9]; MRSE, S. epidermidis MRSE, 2 isolates, read-out: MIC (median)): 0.008 µg/mL (≈ 4.9 nM)
MIC ([9]; S. epidermidis MSSE, 1 isolate, read-out: MIC): 0.015 µg/mL (≈ 9.19 nM)
MIC [10]: 0.016 µg/mL (≈ 9.8 nM)
Reduction in MRSA biofilm titer compared to untreated biofilm ([11]; 128 μg/ml): 4 log10 CFU/peg
Concentrations with statistically significant reduction versus control biofilm ([11]; two-way ANOVA, Bonferroni): ≥ 4 µg/mL
MIC:MBC ([12]; E. faecalis VSE, MBC on one organism): >8
MIC:MBC ([12]; E. faecalis VanA VRE): 8
MIC ([12]; E. faecalis VanA VRE, 1 isolate): 0.5 µg/mL (≈ 306 nM)
MIC ([12]; Enterococcus faecalis, ATCC29212, E. faecalis ATCC 29212, VSE, read-out: MIC): 0.015 µg/mL (≈ 9.19 nM)
MIC ([12]; Enterococcus faecalis, E. faecalis MMX 1086, VanA VRE, read-out: MIC): 0.5 µg/mL (≈ 306 nM)
MIC ([12]; Enterococcus faecalis, E. faecalis MMX 4176, VSE, read-out: MIC): 0.03 µg/mL (≈ 18.4 nM)
MIC ([12]; Enterococcus faecalis, E. faecalis VSE, 2 isolates, read-out: MIC (median)): 0.023 µg/mL (≈ 14.1 nM)
MIC:MBC ([13]; S. pyogenes ermR): 1
MIC ([13]; ATCC19615, S. pyogenes ATCC 19615, read-out: MIC): 0.06 µg/mL (≈ 36.8 nM)
MIC ([13]; S. pyogenes MMX 946, ermR, read-out: MIC): 0.008 µg/mL (≈ 4.9 nM)
MIC ([13]; S. pyogenes MMX 8778, read-out: MIC): 0.015 µg/mL (≈ 9.19 nM)
MIC ([13]; S. pyogenes ermR, 1 isolate, read-out: MIC): 0.008 µg/mL (≈ 4.9 nM)
MIC ([13]; S. pyogenes, 2 isolates, read-out: MIC (median)): 0.04 µg/mL (≈ 24.5 nM)
MIC ([14]; ATCC27844, S. hominis ATCC 27844, read-out: MIC): 0.015 µg/mL (≈ 9.19 nM)
MIC ([14]; S. hominis, 1 isolate, read-out: MIC): 0.015 µg/mL (≈ 9.19 nM)
MIC [15]: > 64 µg/mL
MIC [16]: > 64 µg/mL
MIC [17]: > 64 µg/mL
MIC ([17]; B. cepacia MMX 9040, read-out: MIC): > 64 µg/mL
MIC:MBC ([18]; S. mitis MGS, MBC on one organism): 1
MIC ([18]; ATCC49456, S. mitis (MGS) ATCC 49456, read-out: MIC): 0.008 µg/mL (≈ 4.9 nM)
MIC ([18]; S. mitis (MGS) MMX 5798, read-out: MIC): 0.03 µg/mL (≈ 18.4 nM)
MIC ([18]; S. mitis MGS, 2 isolates, read-out: MIC (median)): 0.02 µg/mL (≈ 12.3 nM)
